Experimental data from the supplement of paper PMC4862054.

What was measured:
Conditions in all cases: incubation time: 72 h
BT-474 [1] = assay: normalised response (% of control), CellTox Green; higher = less cell death (100 = DMSO, 0 = benzethonium chloride kill control)
In short: (§1)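 Breast cancer cell lines, seeded at 20 µl suspension per well, were incubated for 72 h in 384-well plates containing compound at 5 concentrations. These concentrations rose in 10-fold steps over a 10,000-fold range set for each compound. CellTox Green fluorescence (485/520 nm) was read, then CellTiter-Glo luminescence after 10 min at room temperature, and each plate was normalised to 0.1 % DMSO (100) and a positive kill control (0). Values are normalised signals, each at one concentration.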

BT-549 [2] = assay: as above
In short: as §1

CAL-120 [3] = assay: as above
In short: as §1

CAL-148 [4] = assay: as above
In short: as §1

CAL-51 [5] = assay: as above
In short: as §1

CAL-85-1 [6] = assay: as above
In short: as §1

DU-4475 [7] = assay: as above
In short: as §1

HCC1599 [8] = assay: as above
In short: as §1

HCC1937 [9] = assay: as above
In short: as §1

HDQ-P1 [10] = assay: as above
In short: as §1

Hs578T [11] = assay: as above
In short: as §1

MCF-10A [12] = assay: as above
In short: as §1

MDA-MB-231 [13] = assay: as above
In short: as §1

MDA-MB-453 [14] = assay: as above
In short: as §1

MDA-MB-468 [15] = assay: as above
In short: as §1

MFM-223 [16] = assay: as above
In short: as §1

BT-474 [17] = assay: normalised response (% of control), CellTiter-Glo; higher = more viable cells (100 = DMSO, 0 = benzethonium chloride kill control)
Protocol: (§2)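 DSRT, 72 h incubation, CellTox Green / CellTiter-Glo readout. Signal is normalised to DMSO and benzethonium chloride controls. Value is the normalised response at dose 3.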

BT-549 [18] = assay: as above
Protocol: as §2

CAL-120 [19] = assay: as above
Protocol: as §2

CAL-148 [20] = assay: as above
Protocol: as §2

CAL-51 [21] = assay: as above
Protocol: as §2

CAL-85-1 [22] = assay: as above
Protocol: as §2

DU-4475 [23] = assay: as above
Protocol: as §2

HCC1143 [24] = assay: as above
Protocol: as §2

HCC1599 [25] = assay: as above
Protocol: as §2

HCC1937 [26] = assay: as above
Protocol: as §2

HDQ-P1 [27] = assay: as above
Protocol: as §2

Hs578T [28] = assay: as above
Protocol: as §2

MCF-10A [29] = assay: as above
Protocol: as §2

MDA-MB-231 [30] = assay: as above
Protocol: as §2

MDA-MB-436 [31] = assay: as above
Protocol: as §2

MDA-MB-453 [32] = assay: as above
Protocol: as §2

MDA-MB-468 [33] = assay: as above
Protocol: as §2

MFM-223 [34] = assay: as above
Protocol: as §2

SK-BR-3 = assay: as above
Protocol: as §2

HCC1143 [35] = assay: normalised response (% of control), CellTox Green; higher = less cell death (100 = DMSO, 0 = benzethonium chloride kill control)
In short: as §1

MDA-MB-436 [36] = assay: as above
In short: as §1

Compound | normalised response (BT-474 [1]) [%] | normalised response (BT-549 [2]) [%] | normalised response (CAL-120 [3]) [%] | normalised response (CAL-148 [4]) [%] | normalised response (CAL-51 [5]) [%] | normalised response (CAL-85-1 [6]) [%] | normalised response (DU-4475 [7]) [%] | normalised response (HCC1599 [8]) [%] | normalised response (HCC1937 [9]) [%] | normalised response (HDQ-P1 [10]) [%] | normalised response (Hs578T [11]) [%] | normalised response (MCF-10A [12]) [%] | normalised response (MDA-MB-231 [13]) [%] | normalised response (MDA-MB-453 [14]) [%] | normalised response (MDA-MB-468 [15]) [%] | normalised response (MFM-223 [16]) [%] | normalised response (BT-474 [17]) [%] | normalised response (BT-549 [18]) [%] | normalised response (CAL-120 [19]) [%] | normalised response (CAL-148 [20]) [%] | normalised response (CAL-51 [21]) [%] | normalised response (CAL-85-1 [22]) [%] | normalised response (DU-4475 [23]) [%] | normalised response (HCC1143 [24]) [%] | normalised response (HCC1599 [25]) [%] | normalised response (HCC1937 [26]) [%] | normalised response (HDQ-P1 [27]) [%] | normalised response (Hs578T [28]) [%] | normalised response (MCF-10A [29]) [%] | normalised response (MDA-MB-231 [30]) [%] | normalised response (MDA-MB-436 [31]) [%] | normalised response (MDA-MB-453 [32]) [%] | normalised response (MDA-MB-468 [33]) [%] | normalised response (MFM-223 [34]) [%] | normalised response (SK-BR-3) [%] | normalised response (HCC1143 [35]) [%] | normalised response (MDA-MB-436 [36]) [%]
CC1(COc2ccc3c(c2)ncn3-c2ccc3cccc(N4CCC(N)CC4)c3n2)COC1 [Crenolanib] (100 nM) | 103 | 89.1 | 97.2 | 82.2 | 90.2 | 104 | 103 | 99.3 | 80.2 | 105 | 107 | 95.4 | 120 | 108 | 99.6 | 94.3 | 108 | 103 | 97.9 | 107 | 77.8 | 112 | 104 | 109 | 110 | 102 | 105 | 103 | 110 | 113 | 103 | 112 | 107 | 104 | 114 |  | 
CCN(CC)CCCC(C)Nc1ccnc2cc(Cl)ccc12 (configuration not stated) [Chloroquine] (1000 nM) | 79.8 | 105 | 103 | 104 | 85.5 | 110 | 99.9 | 97.9 | 102 | 88.4 | 99.3 | 86.3 | 98 | 96.3 |  | 87.7 | 101 | 103 | 110 | 86.9 | 78.1 | 102 | 93 | 97.4 | 97 | 90.6 | 103 | 96 | 94.4 | 98.1 | 108 | 81.3 | 83.1 | 93.4 | 82.9 | 109 | 85
O=[N+]([O-])c1ccc2c(c1)S(=O)(=O)C=C2 [Stattic] (500 nM) | 101 | 102 | 99.8 | 102 | 108 | 98.8 | 107 | 95.4 |  | 104 | 89.2 | 106 | 107 | 103 | 133 | 96.9 | 94.5 | 85.3 | 98.2 | 98.3 | 99 | 99.5 | 102 | 104 | 103 | 94.3 | 100 | 96.5 | 106 | 90.8 | 100 | 85.2 | 45.6 | 96.8 | 106 | 81.2 | 95.3
CCNC(=O)c1noc(-c2cc(C(C)C)c(O)cc2O)c1-c1ccc(CN2CCOCC2)cc1 [NVP-AUY922] (10 nM) | 95.4 | 81.9 | 93 | 107 | 118 | 73.1 | 98.7 | 112 |  | 104 | 105 | 65 |  | 101 | 107 | 106 | 116 | 73.2 | 103 | 114 | 99.3 | 107 | 101 | 107 | 111 | 95.7 | 77.1 | 104 | 95 | 110 | 56.4 | 101 | 32.4 | 70.4 | 55.8 | 119 | 70.9
Nc1ccn([C@@H]2O[C@H](CO)[C@@H](O)C2(F)F)c(=O)n1 [Gemcitabine] (10 nM) | 97.1 | 92.5 | 99.7 | 36.9 | 84.7 | 85 | 101 | 100 | 111 |  | 102 | 103 | 97.9 | 105 | 48.3 | 95.2 | 89.3 | 61.3 | 94.9 | 77.9 | 82 | 85.6 | 96.8 | 68.3 | 89.5 | 90.8 | 102 | 99.3 | 102 | 85.3 | 64.2 | 139 | 52.2 | 100 | 79.6 | 102 | 97.1
Cn1cc(C2=C(c3cn(C4CCN(Cc5ccccn5)CC4)c4ccccc34)C(=O)NC2=O)c2ccccc21 [Enzastaurin] (100 nM) | 101 | 95.4 | 104 | 95 | 104 | 99.2 | 104 | 115 | 102 | 114 | 111 | 104 | 102 | 102 | 56.9 | 107 | 103 | 98.3 | 99.1 | 106 | 65 | 107 | 99.4 | 103 | 90.6 | 101 | 94 | 98.2 | 101 | 103 | 102 | 105 | 96.9 | 106 | 104 |  | 86
CC(=O)[C@]1(O)Cc2c(O)c3c(c(O)c2[C@@H](O[C@H]2C[C@H](N)[C@H](O)[C@H](C)O2)C1)C(=O)c1ccccc1C3=O [Idarubicin] (10 nM) | 99.2 | 83.3 | 97.7 | 93 | 79.8 | 97.7 | 100 | 113 | 55.8 | 105 | 114 |  | 106 | 104 | 118 | 97.6 | 98.7 | 89.7 | 106 | 102 | 73.7 | 105 | 96 | 109 | 118 | 99.2 | 101 | 94.5 | 100 | 109 | 95.9 | 110 | 92.9 | 107 | 105 | 114 | 96
C=CCn1c(=O)c2cnc(Nc3ccc(N4CCN(C)CC4)cc3)nc2n1-c1cccc(C(C)(C)O)n1 [MK1775] (100 nM) | 95.4 | 105 | 97.8 | 73.4 | 82.8 | 77.2 | 94.9 | 90 |  | 98.5 | 66.1 | 84.2 | 70.8 | 96.5 | 76.1 | 97.1 | 87.1 | 91.1 | 79 | 73.4 | 94.7 | 90.3 | 93.4 | 89.2 | 81.2 | 90.7 | 74.6 | 87.7 | 73.3 | 81.5 | 69.4 | 67.6 | 89.2 | 82.4 | 79 | 98.6 | 63.2
CO[C@@H]1[C@H](N(C)C(=O)c2ccccc2)C[C@H]2O[C@]1(C)n1c3ccccc3c3c4c(c5c6ccccc6n2c5c31)C(=O)NC4 [Midostaurin] (100 nM) | 96.4 | 88.8 | 74.9 | 97.8 | 74.1 | 95.8 | 94.6 | 94.5 |  | 103 | 67 | 108 | 91.2 | 102 | 137 | 103 | 85.3 | 93.4 | 88.5 | 114 | 89.7 | 99 | 96.9 | 95.3 | 99.6 | 85.5 | 95.9 | 83.3 | 68.7 | 85.8 | 102 | 94.3 | 92.4 | 98.8 | 98.4 | 88.6 | 93.9
